From patent US9265781B2, “Process for producing a particulate composition comprising anhydrous crystalline 2-O-alpha-D-glucosyl-L-ascorbic acid” (HAYASHIBARA CO., LTD., priority 2009, dated 2016) come the findings set out here.

The structures appear in SMILES notation.

Common to all, as to assay type: physicochemical
A short description of data set [1]: Storage stability test (Experiment 3-2). Details: key: “Caked” (+), clump(s) is/are detected in a test sample and the flowability of the test sample has lowered in comparison with that at the initiation of the test; “Not caked” (−), no clump is detected in a test sample and the flowability of the test sample has not been changed in comparison with that at the initiation of the test. The following applies: 10 kg in open polyethylene-double-bag in uncapped steel can, 45 days; flowability and caked state. The source says: To confirm that the caking test conducted in Experiment 1-4, etc., is a proper test for evaluating the caking of a particulate composition containing anhydrous crystalline ascorbic acid 2-glucoside when actually stored, Test sample 1 obtained in Experiment 1-1, Test samples 10 to 15 obtained in Experiment 3-1, and Test sample 16 were subjected to a storage stability test which was designed by taking account of conditions, environment, and period of time for actual storage of a particulate composition containing anhydrous crystalline ascorbic acid 2-glucoside.
Ten kilogram aliquots of any of Test samples 1 and 10 to 16 were respectively weighed and placed in a polyethylene-double-bag (800 mm by 600 mm) for each test sample. Then, each bag was placed in a 18-liter steel can in such a manner of allowing the opening part of each bag to open and stand upright without closing the opening part, allowing the bags to stand without capping the steel cans, and storing for 45 days in a room away from a relatively high temperature and humidity. After 45 days storage, each polyethylene-double-bag enclosing any of the test samples was taken out from the cans, and the samples were taken out from the bags and placed on a black-plastic-plane-plate for macroscopic observation of their flowabilities and caked states.
The test samples were judged about their caking by the following criteria: “Caked” (+), clump(s) is/are detected in a test sample and the flowability of the test sample has lowered in comparison with that at the initiation of the test; and “Not caked” (−), no clump is detected in a test sample and the flowability of the test sample has not been changed in comparison with that at the initiation of the test. The storage form of each test sample in the storage stability test is the same as that of a quasi-drug-grade powder that is commercially distributed and stored, except for not closing the opening part of the bag with a rubber band, not putting in any desiccant, and being stored in a steel can without closing it with a lid. The above three differences were of those, which had been set as a storage environment for a storage test that was slightly harder than an actual storage environment, to expedite the test results. The results are in Table 3 in parallel.

The nature of data set [2]: Caking test (Experiment 1-4). On the set-up: key: “Caked”, (+): Sample clearly keeps the hemispherical shape of the bottom of the tube even when placed on the plate; “Slightly caked”, (±): Sample slightly but distinguishably shows the hemispherical shape of the bottom of the tube; “Not caked” (−): Sample does not keep the hemispherical shape of the bottom of the tube. To be noted: 1 g in 14-ml polypropylene tube, 50° C., 24 hours, macroscopic observation. The protocol: The following experiment was performed to investigate the caking of respective Test samples 1 to 4: One gram aliquots of each of Test samples 1 to 4, prepared in Experiment 1-1, were separately filled into “FALCON TUBE 2059”, a product name of a 14-ml polypropylene cylindrical tube (1.7 cm in diameter, 10 cm in height) having a hemispherical bottom shape and a cap, commercialized by Becton, Dickinson and Company, New Jersey, USA. The tubes were uprightly set to a tube rack and allowed to stand for 24 hours, after the tube rack was placed in “IC-410”, a product name of an incubator commercialized Advantec Toyo Kaisha, Ltd., Tokyo, Japan, controlled at 50° C. After the incubation, the tubes were taken out from the incubator, followed by removing each cap, taking out each test sample from each tube to place it on a black-plastic-plane plate by turning the tubes upside down slowly, and macroscopically observing the conditions of the resulting test samples.

A short description of data set [3]: Solubility in hydrophilic solvent, 30% 1,3-butylene glycol (Experiment 6). The following applies: same test as in Experiment 6. The source says: Any one of the above test samples and the particulate compositions of Examples 1 to 4 was weighed 0.25 g and placed in “FALCON TUBE 2059”, a product name of a 14-ml polypropylene cylindrical tube having a hemispherical bottom shape and a cap, commercialized by Becton, Dickinson and Company, New Jersey, USA. […]

In the case of `O=C1O[C@H]([C@@H](O)CO)C(O)=C1O[C@H]1O[C@H](CO)[C@@H](O)[C@H](O)[C@H]1O` [Test sample 22, 2-O-α-D-glucosyl-L-ascorbic acid], in data set [1], the Storage stability entry is reported as “−”. The Caking entry in data set [2] was “−”.

Take `O=C1O[C@H]([C@@H](O)CO)C(O)=C1O[C@H]1O[C@H](CO)[C@@H](O)[C@H](O)[C@H]1O` [Test sample 4, 2-O-α-D-glucosyl-L-ascorbic acid]: the Caking entry in data set [2] is on record as “−”.

For `O=C1O[C@H]([C@@H](O)CO)C(O)=C1O[C@H]1O[C@H](CO)[C@@H](O)[C@H](O)[C@H]1O` [Example 8, 2-O-α-D-glucosyl-L-ascorbic acid], in data set [2], the Caking result was “− and ±”. Moreover, in data set [3], the “Solubility in 1,3-butylene glycol (judgement in words)” value (shortened to “Solubility in 1,3-butylene glycol”) is listed as “Passable solubility”.

Take `O=C1O[C@H]([C@@H](O)CO)C(O)=C1O[C@H]1O[C@H](CO)[C@@H](O)[C@H](O)[C@H]1O` [Test sample 19, 2-O-α-D-glucosyl-L-ascorbic acid]: the Storage stability result in data set [1] is given as “−”. Moreover, the Caking entry in data set [2] is recorded as “−”.

`O=C1O[C@H]([C@@H](O)CO)C(O)=C1O[C@H]1O[C@H](CO)[C@@H](O)[C@H](O)[C@H]1O` [Test sample 28, 2-O-α-D-glucosyl-L-ascorbic acid]: the Caking result in data set [2] was “+”.

On to `O=C1O[C@H]([C@@H](O)CO)C(O)=C1O[C@H]1O[C@H](CO)[C@@H](O)[C@H](O)[C@H]1O` [Test sample 5, 2-O-α-D-glucosyl-L-ascorbic acid], for which the Caking entry in data set [2] was “−”.

`O=C1O[C@H]([C@@H](O)CO)C(O)=C1O[C@H]1O[C@H](CO)[C@@H](O)[C@H](O)[C@H]1O` [Comparative Example 2, 2-O-α-D-glucosyl-L-ascorbic acid]: the Caking entry in data set [2] is “+”. In addition, the “Solubility in 1,3-butylene glycol” value in data set [3] is listed as “Passable solubility”.

Take `O=C1O[C@H]([C@@H](O)CO)C(O)=C1O[C@H]1O[C@H](CO)[C@@H](O)[C@H](O)[C@H]1O` [Test sample 6, 2-O-α-D-glucosyl-L-ascorbic acid]: in data set [2], the Caking entry is “−”.

For `O=C1O[C@H]([C@@H](O)CO)C(O)=C1O[C@H]1O[C@H](CO)[C@@H](O)[C@H](O)[C@H]1O` [Test sample 1, 2-O-α-D-glucosyl-L-ascorbic acid], the Storage stability entry in data set [1] was “−”. In data set [2], the Caking entry is listed as “−”.

In the case of `O=C1O[C@H]([C@@H](O)CO)C(O)=C1O[C@H]1O[C@H](CO)[C@@H](O)[C@H](O)[C@H]1O` [Test sample 21, 2-O-α-D-glucosyl-L-ascorbic acid], the Storage stability entry in data set [1] is listed as “−”. Also, in data set [2], the Caking result is recorded as “−”.

For the compound `O=C1O[C@H]([C@@H](O)CO)C(O)=C1O[C@H]1O[C@H](CO)[C@@H](O)[C@H](O)[C@H]1O` [Example 7, 2-O-α-D-glucosyl-L-ascorbic acid], in data set [2], the Caking entry is given as “−”. Moreover, the “Solubility in 1,3-butylene glycol” value in data set [3] is “Passable solubility”.

`O=C1O[C@H]([C@@H](O)CO)C(O)=C1O[C@H]1O[C@H](CO)[C@@H](O)[C@H](O)[C@H]1O` [Example 1, 2-O-α-D-glucosyl-L-ascorbic acid]: the Storage stability entry in data set [1] is “−”. The Caking entry in data set [2] was “−”.

Turning to `O=C1O[C@H]([C@@H](O)CO)C(O)=C1O[C@H]1O[C@H](CO)[C@@H](O)[C@H](O)[C@H]1O` [Test sample 7, 2-O-α-D-glucosyl-L-ascorbic acid], the Caking entry in data set [2] is “−”.

`O=C1O[C@H]([C@@H](O)CO)C(O)=C1O[C@H]1O[C@H](CO)[C@@H](O)[C@H](O)[C@H]1O` [Example 2, 2-O-α-D-glucosyl-L-ascorbic acid]: the Storage stability result in data set [1] is on record as “−”. Moreover, the Caking result in data set [2] was “−”.

As for `O=C1O[C@H]([C@@H](O)CO)C(O)=C1O[C@H]1O[C@H](CO)[C@@H](O)[C@H](O)[C@H]1O` [Example 6, 2-O-α-D-glucosyl-L-ascorbic acid], in data set [2], the Caking entry is “−”. For the same compound, in data set [3], the “Solubility in 1,3-butylene glycol” value was “Passable solubility”.

In the case of `O=C1O[C@H]([C@@H](O)CO)C(O)=C1O[C@H]1O[C@H](CO)[C@@H](O)[C@H](O)[C@H]1O` [Test sample 20, 2-O-α-D-glucosyl-L-ascorbic acid], the Storage stability entry in data set [1] was “+”. The Caking result in data set [2] is given as “+”.

Take `O=C1O[C@H]([C@@H](O)CO)C(O)=C1O[C@H]1O[C@H](CO)[C@@H](O)[C@H](O)[C@H]1O` [Example for Reference 1, 2-O-α-D-glucosyl-L-ascorbic acid]: the Storage stability result in data set [1] is given as “−”. Further, in data set [2], the Caking result is on record as “−”. Moreover, the “Solubility in 1,3-butylene glycol” value in data set [3] is “Impassable solubility”.

As to `O=C1O[C@H]([C@@H](O)CO)C(O)=C1O[C@H]1O[C@H](CO)[C@@H](O)[C@H](O)[C@H]1O` [Test sample 8, 2-O-α-D-glucosyl-L-ascorbic acid], the Caking entry in data set [2] is “±”.

`O=C1O[C@H]([C@@H](O)CO)C(O)=C1O[C@H]1O[C@H](CO)[C@@H](O)[C@H](O)[C@H]1O` [Test sample 11, 2-O-α-D-glucosyl-L-ascorbic acid]: the Storage stability entry in data set [1] was “+”. Moreover, in data set [2], the Caking result was “±”.

Take `O=C1O[C@H]([C@@H](O)CO)C(O)=C1O[C@H]1O[C@H](CO)[C@@H](O)[C@H](O)[C@H]1O` [Example 4, 2-O-α-D-glucosyl-L-ascorbic acid]: in data set [1], the Storage stability result is recorded as “−”. In data set [2], the Caking entry is “−”.

As to `O=C1O[C@H]([C@@H](O)CO)C(O)=C1O[C@H]1O[C@H](CO)[C@@H](O)[C@H](O)[C@H]1O` [Comparative Example 1, 2-O-α-D-glucosyl-L-ascorbic acid], the Caking entry in data set [2] is on record as “+”. The “Solubility in 1,3-butylene glycol” value in data set [3] is “Passable solubility”.

On to `O=C1O[C@H]([C@@H](O)CO)C(O)=C1O[C@H]1O[C@H](CO)[C@@H](O)[C@H](O)[C@H]1O` [Test sample 10, 2-O-α-D-glucosyl-L-ascorbic acid], for which the Storage stability entry in data set [1] is given as “+”. The Caking result in data set [2] is given as “+”.

For `O=C1O[C@H]([C@@H](O)CO)C(O)=C1O[C@H]1O[C@H](CO)[C@@H](O)[C@H](O)[C@H]1O` [Example 5, 2-O-α-D-glucosyl-L-ascorbic acid], the Caking entry in data set [2] is “−”. For the same compound, the “Solubility in 1,3-butylene glycol” value in data set [3] is on record as “Passable solubility”.

In the case of `O=C1O[C@H]([C@@H](O)CO)C(O)=C1O[C@H]1O[C@H](CO)[C@@H](O)[C@H](O)[C@H]1O` [Example 3, 2-O-α-D-glucosyl-L-ascorbic acid], the Storage stability result in data set [1] is reported as “−”. In addition, in data set [2], the Caking result is “−”.

Consider `O=C1O[C@H]([C@@H](O)CO)C(O)=C1O[C@H]1O[C@H](CO)[C@@H](O)[C@H](O)[C@H]1O` [Test sample 9, 2-O-α-D-glucosyl-L-ascorbic acid], for which, in data set [2], the Caking result is “+”.

In the case of `O=C1O[C@H]([C@@H](O)CO)C(O)=C1O[C@H]1O[C@H](CO)[C@@H](O)[C@H](O)[C@H]1O` [Test sample 3, 2-O-α-D-glucosyl-L-ascorbic acid], the Caking result in data set [2] is “+”.

Turning to `O=C1O[C@H]([C@@H](O)CO)C(O)=C1O[C@H]1O[C@H](CO)[C@@H](O)[C@H](O)[C@H]1O` [Test sample 2, 2-O-α-D-glucosyl-L-ascorbic acid], the Caking entry in data set [2] is “+”.
